Test results: US20240174655A1, “INDAZOLE DERIVATIVES AS ANTAGONISTS OF THE MUSCARINIC ACETYLCHOLINE RECEPTOR M4” (Vanderbilt University, priority 2021, published 2024)

How the values were obtained:
Human M4 = biological target: T1, Human M4 (Homo sapiens, UniProt P08173); experiment: mAChR M4 cell-based functional assay (calcium flux, EC80 acetylcholine response); conditions: M4/Gqi5/CHO-K1 cells; for remaining activity at 30 µM: % ACh maximum at 30 μM, read-out: Human M4 Emin (% ACh maximum at 30 μM); for IC50: decrease of the response to an EC80 concentration of acetylcholine, read-out: Human M4 IC50
T1 construct: expressed in transfected cells; host or cells: CHO-K1 (Chinese hamster ovary, ATCC), stably expressing M4 and Gqi5
T1 sequence (P08173 1-479): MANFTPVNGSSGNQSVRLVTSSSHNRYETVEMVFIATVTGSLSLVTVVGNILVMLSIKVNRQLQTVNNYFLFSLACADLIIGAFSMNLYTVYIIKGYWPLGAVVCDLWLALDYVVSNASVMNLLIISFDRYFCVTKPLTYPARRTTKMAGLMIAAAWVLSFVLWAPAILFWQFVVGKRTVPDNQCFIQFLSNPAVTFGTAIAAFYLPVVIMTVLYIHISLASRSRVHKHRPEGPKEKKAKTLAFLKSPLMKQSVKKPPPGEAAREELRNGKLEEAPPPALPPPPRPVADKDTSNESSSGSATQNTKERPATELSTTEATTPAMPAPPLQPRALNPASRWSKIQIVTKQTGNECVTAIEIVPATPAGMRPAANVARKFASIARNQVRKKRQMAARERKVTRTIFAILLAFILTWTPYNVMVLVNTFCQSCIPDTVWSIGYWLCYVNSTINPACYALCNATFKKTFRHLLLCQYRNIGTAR
Method: Human or rat M4 cDNA, along with the chimeric G protein Gqi5, were transfected into Chinese hamster ovary (CHO-K1) cells purchased from the American Type Culture Collection using Lipofectamine2000. M4/Gqi5/CHO cells were grown in Ham's F-12 medium containing […] heat-inactivated fetal bovine serum (FBS), 20 mM HEPES, 500 μg/mL G418 sulfate, and 200 μg/mL Hygromycin B.
For high throughput measurement of agonist-evoked increases in intracellular calcium, CHO-K1 cells stably expressing muscarinic receptors were plated in growth medium lacking G418 and hygromycin at 15,000 cells/20 μL/well in Greiner 384-well black-walled, tissue culture (TC)-treated, clear-bottom plates (VWR). Cells were incubated overnight at 37° C. and 500 CO2. […] Compound master plates were formatted in a 10 point concentration-response curve (CRC) format (1:3 dilutions) in 100% DMSO with a starting concentration of 10 or 1 mM using a BRAVO liquid handler (Agilent). Test compound CRCs were then transferred to daughter plates (240 nL) using the Echo acoustic plate reformatter (Labcyte, Sunnyvale, CA) and then diluted into assay buffer (40 μL) to a 2× stock using a Thermo Fisher Combi (Thermo Fisher Scientific, Waltham, MA).
Calcium flux was measured using the Functional Drug Screening System (FDSS) 6000 or 7000 (Hamamatsu Corporation, Tokyo, Japan) as an increase in the fluorescent static ratio. Compounds were applied to cells (20 μL, 2×) using the automated system of the FDSS at 2 seconds into the protocol and the data were collected at 1 Hz. […] Agonist activity was analyzed as a concentration-dependent increase in calcium mobilization upon compound addition. Positive allosteric modulator activity was analyzed as a concentration-dependent increase in the EC20 acetylcholine response. Antagonist activity was analyzed as a concentration-dependent decrease in the EC80 acetylcholine response; for the purposes of the tables herein, an IC50 (inhibitory concentration 50) was calculated as a concentration-dependent decrease of the response elicited by an EC80 concentration of acetylcholine. Concentration-response curves were generated using a four-parameter logistical equation in XLFit curve fitting software (IDBS, Bridgewater, NJ) for Excel (Microsoft, Redmond, WA) or Prism (GraphPad Software, Inc., San Diego, CA) or the Dotmatics software platform (Dotmatics, Bishop's Stortford, UK).
Compounds were synthesized as described above.

[1] = test system: catalepsy induced by the DA receptor antagonist haloperidol; conditions: cited from earlier work

Row | remaining activity at 30 µM (Human M4) [%] | IC50 (Human M4) [nM] | SMILES | reduction of haloperidol-induced catalepsy ([1]; M4 KO mice) | reversal of haloperidol-induced catalepsy ([1]; WT mice)
1 | 4 | 0.79 | COc1cc(-c2ccc3nn(C)cc3c2C)nnc1N[C@H]1C[C@@H]2CN(CC3CCOCC3)C[C@@H]2C1 [compound 26, (3aR,5s,6aS)-N-(6-(2,4-dimethyl-2H-indazol-5-yl)-4-methoxypyridazin-3-yl)-2-((tetrahydro-2H-pyran-4-yl)-methyl)octahydrocyclopenta[c]pyrrol-5-amine] |  | 
2 | 4 | 0.99 | [2H]C([2H])(C1CCOC(C)(C)C1)N1C[C@H]2C[C@H](Nc3ccc(-c4ccc5nn(C)cc5c4C)nn3)C[C@H]2C1 (stereo partly drawn) [compound 18, (3aR,5s,6aS)-N-(6-(2,4-dimethyl-2H-indazol-5-yl)pyridazin-3-yl)-2-((2,2-dimethyltetrahydro-2H-pyran-4-yl)methyl-d2)octahydrocyclopenta[c]pyrrol-5-amine] |  | 
3 | 10 | 1.1 | [2H]C([2H])(C1CCOCC1)N1C[C@H]2C[C@H](Nc3ccc(-c4ccc5nn(C)cc5c4C(F)(F)F)nn3)C[C@H]2C1 [compound 8, (3aR,5s,6aS)-N-(6-(2-methyl-4-(trifluoromethyl)-2H-indazol-5-yl)-pyridazin-3-yl)-2-((tetrahydro-2H-pyran-4-yl)methyl-d2)octahydrocyclopenta[c]pyrrol-5-amine] |  | 
4 | 4 | 0.41 | Cc1c(-c2ccc(N[C@H]3C[C@@H]4CN(CC5CCOCC5)C[C@@H]4C3)nn2)ccc2nn(C)cc12 [compound 2, (3aR,5s,6aS)-N-(6-(2,4-dimethyl-2H-indazol-5-yl)pyridazin-3-yl)-2-((tetrahydro-2H-pyran-4-yl)methyl)octahydrocyclopenta[c]pyrrol-5-amine] |  | 
5 | 5 | 5 | [2H]C([2H])(C1CC(C)(C)OC(C)(C)C1)N1C[C@H]2C[C@H](Nc3ccc(-c4ccc5nn(C)cc5c4C)nn3)C[C@H]2C1 [compound 19, (3aR,5s,6aS)-N-(6-(2,4-dimethyl-2H-indazol-5-yl)pyridazin-3-yl)-2-((2,2,6,6-tetramethyltetrahydro-2H-pyran-4-yl)methyl-d2)octahydrocyclopenta[c]pyrrol-5-amine] |  | 

Continued, compound first:

Row | SMILES | remaining activity at 30 µM (Human M4) [%] | IC50 (Human M4) [nM] | reduction of haloperidol-induced catalepsy ([1]; M4 KO mice) | reversal of haloperidol-induced catalepsy ([1]; WT mice)
6 | Cn1cc2c(C(F)(F)F)c(-c3ccc(N[C@H]4C[C@@H]5CN(CC6CCOCC6)C[C@@H]5C4)nn3)ccc2n1 [compound 7, (3aR,5s,6aS)-N-(6-(2-methyl-4-(trifluoromethyl)-2H-indazol-5-yl)pyridazin-3-yl)-2-((tetrahydro-2H-pyran-4-yl)methyl)octahydrocyclopenta[c]pyrrol-5-amine] | 3 | 1.5 |  | 
7 | [2H]C([2H])(N1C[C@H]2C[C@H](Nc3ccc(-c4ccc5nn(C)cc5c4C)nn3)C[C@H]2C1)C(F)(F)C1CCOCC1 [compound 23, (3aR,5s,6aS)-2-(2,2-difluoro-2-(tetrahydro-2H-pyran-4-yl)ethyl-1,1-d2)-N-(6-(2,4-dimethyl-2H-indazol-5-yl)-pyridazin-3-yl)octahydrocyclopenta[c]pyrrol-5-amine] | 4 | 1.8 |  | 
8 | [2H]C([2H])(N1C[C@H]2C[C@H](Nc3ccc(-c4ccc5nn(C)cc5c4C)nn3)C[C@H]2C1)C1(F)CCOCC1 [compound 20, (3aR,5s,6aS)-N-(6-(2,4-dimethyl-2H-indazol-5-yl)pyridazin-3-yl)-2-((4-fluorotetrahydro-2H-pyran-4-yl)methyl-d2)octahydrocyclopenta[c]pyrrol-5-amine] | 4 | 0.99 |  | 
9 | [2H]C([2H])([C@H]1CCCCO1)N1C[C@H]2C[C@H](Nc3ccc(-c4ccc5nn(C)cc5c4C)nn3)C[C@H]2C1 [compound 11, (3aR,5s,6aS)-N-(6-(2,4-dimethyl-2H-indazol-5-yl)pyridazin-3-yl)-2-(((R)-tetrahydro-2H-pyran-2-yl)-methyl-d2)octahydrocyclopenta[c]pyrrol-5-amine] | 2 | 0.41 |  | 
10 | CN1[C@@H]2C[C@@H](OC(=O)[C@H](CO)c3ccccc3)C[C@H]1[C@@H]1O[C@@H]12 [scopolamine] |  |  | ineffective | completely reversed
11 | [2H]C([2H])([C@@H]1COCCO1)N1C[C@H]2C[C@H](Nc3ccc(-c4ccc5nn(C)cc5c4C)nn3)C[C@H]2C1 [compound 16, (3aR,5s,6aS)-2-(((R)-1,4-dioxan-2-yl)-methyl-d2)-N-(6-(2,4-dimethyl-2H-indazol-5-yl)pyridazin-3-yl)octahydrocyclopenta[c]pyrrol-5-amine] | 3 | 8.9 |  | 
12 | [2H]C([2H])([2H])N(c1cc(C(F)(F)F)c(-c2ccc3nn(C)cc3c2C)nn1)[C@H]1C[C@@H]2CN(CC3CCOCC3)C[C@@H]2C1 [compound 5, (3aR,5s,6aS)-N-(6-(2,4-dimethyl-2H-indazol-5-yl)-5-(trifluoromethyl)pyridazin-3-yl)-N-(methyl-d3)-2-((tetrahydro-2H-pyran-4-yl)methyl)octahydrocyclopenta[c]pyrrol-5-amine] | 3 | 130 |  | 
13 | [2H]C1([2H])CC(C([2H])([2H])N2C[C@H]3C[C@H](Nc4ccc(-c5ccc6nn(C)cc6c5C)nn4)C[C@H]3C2)CC([2H])([2H])O1 [compound 21, (3aR,5s,6aS)-N-(6-(2,4-dimethyl-2H-indazol-5-yl)pyridazin-3-yl)-2-((tetrahydro-2H-pyran-4-yl-2,2,6,6-d4)methyl-d2)octahydrocyclopenta[c]pyrrol-5-amine] | 3 | 0.4 |  | 
14 | [2H][C@@]1(Nc2ccc(-c3ccc4nn(C)cc4c3C)nn2)C[C@H]2CN(CC3CCOCC3)C[C@H]2C1 [compound 3, (3aR,5s,6aS)-N-(6-(2,4-dimethyl-2H-indazol-5-yl)pyridazin-3-yl)-2-((tetrahydro-2H-pyran-4-yl)methyl)octahydrocyclopenta[c]pyrrol-5-d-5-amine] | 2 | 0.33 |  | 
